Measurements reported in patent US8957071B2, “Treatment of vascular, autoimmune and inflammatory diseases using low dosages of IMPDH inhibitors” (Aspreva Pharmaceuticals S.A., priority 2005, dated 2015).

Tests used:
[1] = Serum mycophenolic acid levels in Ldlr−/− mice by commercial assay; type: in vivo
Method: (§1) Diet W will be formulated with CellCept® incorporated directly into the chow, at concentrations of 0.04%, 0.08% or 0.26% mycophenolate mofetil by weight. When administered in this way, the mice will be expected to consume 15 mg/kg/day (“low dose”), 30 mg/kg/day (“low dose”), or 100 mg/kg/day (“high-dose”) of the drug. Mice will be sacrificed 12 weeks after feeding on the study diet, and the endpoints determined.
No MPA was detected in the serum of control mice (data not shown).

male Ldlr−/− mice [2] = test: Atherosclerosis in Ldlr−/− (LDLRKO) mice on Western-type diet: percentage of aortic sinus occluded by plaque; type: in vivo; conditions: 12 weeks; for reduction of atherosclerosis (AS): male Ldlr−/− mice; for percentage of aortic sinus occluded by plaque: control 16%
Description: (§2) This example illustrates the effect of low-dose MMF on mice lacking the low-density lipoprotein receptor B6.129S7-Ldlrtm1Her/J (hereinafter referred to as LDLRKO mice) obtained from Jackson Labs. When placed on a high-fat, high-cholesterol “Western-type” diet, these mice develop severe atherosclerosis (Ishibashi et al., 1994, J Clin Invest. 93(5):1885-93).
as §1
The primary endpoint will be evaluated using histological analysis of plaque area at the aortic root. The total lesion area in oil red O-stained cryostat sections of the aortic root is quantified using a Leica image analysis system. Mean lesion area (as a percentage of aortic cross-sectional area) is calculated from 10 oil red O-stained sections, beginning at the appearance of the tricuspid valves.
(§3) Plaque composition is analysed as a secondary endpoint using oil red O staining (for lipid content—see above), Movat's pentachrome staining (for lesion complexity including extracellular matrix and glycosaminoglycans), and haematoxylin and eosin (for macrophage content). The average atherosclerotic area is compared between the groups using the two-way ANOVA test. Additional secondary endpoints will be plasma levels of total cholesterol, HDL cholesterol, LDL cholesterol, triglycerides, and glucose, as well as en face visualization of the thoracic and abdominal aortas stained with oil red O.
Low-dose therapy (15 mg/kg/day, a dosage equivalent to approximately 1 gram per day in a 70 kg human) reduced AS by 31% (from 16% to 11% of the sinus) whereas high-dose therapy reduced AS by 61% (from 16% to 6.2%). The response was dose-dependent. Quantification was performed by a single, trained observer blinded to treatment group.

[3] = test system: male New Zealand White (NZW) rabbits; test: High-cholesterol New Zealand White rabbit model of atherogenesis (Example 2); type: in vivo; conditions: 1 or 5 mg/kg by gastric gavage daily, 12 weeks
Method: This example illustrates the use of low dose MMF in the treatment of a rabbit model of atherogenesis.
Study Design: Studies are done in 30 male New Zealand White (NZW) rabbits weighing 1.0-1.5 kg at the beginning of the experiment. After obtaining baseline blood samples, rabbits are fed ad libitum a 1% cholesterol diet for 12 weeks. This diet is prepared by dissolving cholesterol (Sigma, St. Louis, Mo.) in 100% ethanol at a temperature of 60° C., mixing this solution with standard rabbit chow (Purina), and allowing the complete evaporation of the ethanol.
The rabbits are divided into three groups and treated as follows: (1) CHOL+MMF (extra-low) group (n=10) receives by gastric gavage 5 mg/kg of MMF in 0.4 ml of water; (2) CHOL+MMF (ultra-low) group (n=10) receives by gastric gavage 1 mg/kg of MMF in 0.4 ml of water; and (3) CHOL group (n=10) receives by the same route daily 0.4 ml of water. […] The MMF and vehicle are given daily throughout the 12 experimental weeks.
Blood samples for determination of plasma cholesterol and triglyceride are taken every 2 weeks. […]
Determination of aortic cholesterol content: Lipids are isolated from the aortic segments as described by Folch et al., 1957, J Biol Chem. […]:497-509. […] Cholesterol is determined in the lipid extract by the method of Zlatikis et al., 1953, J Lab Clin Med. 1:486-492. […]

male Ldlr−/− mice [4] = test: Serum lipids (triglycerides, phospholipids, HDL) in Ldlr−/− mice on Western-type diet; type: in vivo; conditions: for serum phospholipid (PPL) levels: control 1078+91 mg/dL; for serum triglyceride (Tgs) levels: control 1198+137 mg/dL
Description: as §2, §1, §3
The response was dose-dependent. Quantification was performed by a single, trained observer blinded to treatment group. Mouse groups are the same as for FIG. 1.
Importantly, levels of serum HDL-cholesterol are not lowered by MMF treatment. Quantification was performed by a single, trained observer blinded to treatment group. Mouse groups are the same as for FIG. 1.

rabbits = conditions: 30 mg/kg/day; cited from earlier work
[5] = cited from earlier work
[6] = high-dose (100 mg/kg/day) in chow

SMILES | average serum mycophenolic acid (MPA) level ([1]; high-dose group (MMF 100 mg/kg/day in chow)) [mg/L] | average serum mycophenolic acid (MPA) level ([1]; low-dose group (MMF 15 mg/kg/day in chow)) [mg/L] | reduction of atherosclerosis (AS) (male Ldlr−/− mice [2]; [6]) [%] | percentage of aortic sinus occluded by plaque (male Ldlr−/− mice [2]; [6]) [%] | reduction of atherosclerosis (AS) (male Ldlr−/− mice [2]; low-dose 15 mg/kg/day in chow) [%] | percentage of aortic sinus occluded by plaque (male Ldlr−/− mice [2]; low-dose 15 mg/kg/day in chow) | size and severity of the atherosclerotic lesion (intima/media ratio, aortic cholesterol content), expected [3] | serum phospholipid (PPL) levels (male Ldlr−/− mice [4]; high-dose (100 mg/kg/day)) | serum triglyceride (Tgs) levels (male Ldlr−/− mice [4]; high-dose (100 mg/kg/day)) | serum phospholipid (PPL) levels (male Ldlr−/− mice [4]; low-dose 15 mg/kg/day) | serum triglyceride (Tgs) levels (male Ldlr−/− mice [4]; low-dose 15 mg/kg/day) | effect on HDL levels (male Ldlr−/− mice [4]; male Ldlr−/− mice, same groups as FIG. 1) | effect on atherogenic potential of a high-cholesterol diet (rabbits) | solubility in water [5]
COc1c(C)c2c(c(O)c1C/C=C(\C)CCC(=O)O)C(=O)OC2 [MPA, mycophenolic acid] | 3.65 ± 0.3 | 1.16 ± 0.09 |  |  |  |  |  |  |  |  |  |  |  | 
COc1c(C)c2c(c(O)c1C/C=C(\C)CCC(=O)OCCN1CCOCC1)C(=O)OC2 [mycophenolate mofetil, morpholinoethyl E-6-(1,3-dihydro-4-hydroxy-6-methoxy-7-methyl-3-oxo-5-isobenzofuranyl)-4-methyl-4-hexenoate] |  |  | 61 | 6.2 | 31 | 11 % of the sinus | significantly reduced | 696+115 mg/dL | 452+80 mg/dL | 964+87 mg/dL | 994+149 mg/dL | does not appear to affect HDL levels | ameliorated the atherogenic potential of a high-cholesterol diet | insoluble in water
